ChEMBL document CHEMBL1221195, “Post-translational enzyme activation in an animal via optimized conditional protein splicing” (2007)
Calls of active or inactive are those of the source. No cut-off for these calls is given here.

Experiments:
[1] = system: S2; test: Induction of luciferase protein trans-splicing in Drosophila melanogaster S2 cells transfected with N-luc and C-luc assessed as increase in luciferase activity at 100 nM after 4 hrs by Western blot analysis; type: functional, cell-based
[2] = Induction of luciferase protein trans-splicing in Drosophila melanogaster S2 cells transfected with N-luc and C-luc and 2 copies of FRB assessed as increase in luciferase activity at 100 nM after 4 hrs relative to control; type: functional
[3] = Induction of luciferase protein trans-splicing in Drosophila melanogaster S2 cells transfected with N-luc and C-luc assessed as increase in luciferase activity at 100 nM after 4 hrs at 28 degC relative to control; type: functional
[4] = system: S2; test: Induction of luciferase protein trans-splicing in Drosophila melanogaster S2 cells transfected with N-luc and C-luc assessed as increase in luciferase activity at 100 nM after 4 hrs at 25 degC; type: functional, cell-based
[5] = Induction of luciferase protein trans-splicing in Drosophila melanogaster S2 cells transfected with N-luc and C-luc and FRB assessed as increase in luciferase activity at 100 nM after 4 hrs relative to control; type: functional
[6] = system: S2; test: Induction of luciferase protein trans-splicing in Drosophila melanogaster S2 cells transfected with N-luc C1A mutant and C-luc N45A mutant assessed as increase in luciferase activity at 100 nM after 4 hrs by Western blot analysis; type: functional, cell-based
[7] = system: S2; test: Induction of luciferase protein trans-splicing in Drosophila melanogaster S2 cells transfected with N-luc and C-lucFRB2 assessed as increase in luciferase activity pretreated with ascomycin for 60 mins measured at 100 nM after 4 hrs; type: functional, cell-based
[8] = system: S2; test: Induction of luciferase protein trans-splicing in Drosophila melanogaster S2 cells transfected with N-luc and C-lucFRB2 assessed as increase in luciferase activity at 100 nM after 4 hrs; type: functional, cell-based; settings: TDE = time-dependent effect
[9] = system: S2; test: Induction of luciferase protein trans-splicing in Drosophila melanogaster S2 cells transfected with N-luc and C-luc assessed as increase in luciferase activity after 4 hrs by Western blot analysis; type: functional, cell-based
[10] = Induction of luciferase protein trans-splicing in Drosophila melanogaster S2 cells transfected with N-luc and C-luc assessed as increase in luciferase activity at 100 nM after 4 hrs at 21 degC relative to control; type: functional
[11] = system: Drosophila melanogaster; test: Activation of luciferase in Drosophila melanogaster containing genomically integrated luciferase CPS at 100 uM by Western blot method; type: functional, organism-based
[12] = system: S2; test: Induction of luciferase protein trans-splicing in Drosophila melanogaster S2 cells transfected with N-luc and C-lucFRB2 assessed as increase in luciferase activity pretreated with ascomycin for 15 mins measured at 100 nM after 4 hrs; type: functional, cell-based
[13] = Induction of luciferase protein trans-splicing in Drosophila melanogaster S2 cells transfected with N-luc and C-luc and 3 copies of FRB assessed as increase in luciferase activity at 100 nM after 4 hrs relative to control; type: functional
[14] = system: Drosophila melanogaster; test: Activation of luciferase in Drosophila melanogaster containing genomically integrated luciferase CPS at 100 uM; type: functional, organism-based

| Structure (SMILES) | Activity [1] | Ratio [2] | Ratio [3] | Activity [4] | Ratio [5] | Activity [6] | Activity [7] | Activity [8] | Activity [9] | Ratio [10] | Activity [11] | Activity [12] | Ratio [13] | Activity [14] |
| --- | --- | --- | --- | --- | --- | --- | --- | --- | --- | --- | --- | --- | --- | --- |
| CO[C@H]1[C@@H](O)[C@H](C)C[C@H](C)/C=C/C=C/C=C(\C)[C@@H](c2c[nH]c3c(C)cccc23)C[C@@H]2CC[C@@H](C)[C@@](O)(O2)C(=O)C(=O)N2CCCC[C@H]2C(=O)O[C@H]([C@H](C)C[C@@H]2CC[C@@H](O)[C@H](OC)C2)C[C@H](O)[C@H](C)/C=C(\C)[C@H]1O | inactive | – | – | – | – | – | – | – | – | – | – | – | – | – |
| CO[C@H]1C[C@@H]2CC[C@@H](C)[C@@](O)(O2)C(=O)C(=O)N2CCCC[C@H]2C(=O)O[C@H]([C@H](C)C[C@@H]2CC[C@@H](O)[C@H](OC)C2)CC(=O)[C@H](C)/C=C(\C)[C@@H](O)[C@@H](OC)C(=O)[C@H](C)C[C@H](C)/C=C/C=C/C=C/1C [SIROLIMUS] | Active | 50 | 22 | Active | 15 | inactive | inactive | tde | Dose-dependent effect | 6 | Active | inactive | 75 | Active |
